From patent publication US20230132093A1, “EXTRACELLULAR VESICLE-NLRP3 ANTAGONIST” (Codiak BioSciences, Inc., priority 2019, published 2023)
“Also recorded” adds a separate entry of the source.

Assays:
mouse NLRP3 transcript = assay: NLRP3 knock down in mouse J774.1 cells, qRT-PCR; assay type: cell-based; details: 7-point titration
Experimental: In silico analysis of the mouse NLRP3 transcript was used to generate 100 candidate NLRP3 ASOs. Mouse J774.1 cells were treated in vitro with either 5 nM or 20 nM of each candidate NLRP3 ASO. NLRP3 expression was measured using qRT-PCR, and about 30 ASOs yielding a knock down of at least 50% were subjected to further analysis. The top 22 performing ASOs were then subjected to a 7-point titration of various concentrations in mouse J774.1 cells, and NLRP3 expression was again measured by qRT-PCR (FIGS. 4A-4V).

human NLRP3 = assay: IL-1β secretion in cultured primary human MO macrophages after ASO, LPS and ATP; assay type: cell-based; details: for IL-1β induction: 50 nM ASO; for IL-1β secretion relative to ASO scramble controls: most donor cell populations
Experimental: The top-performing ASOs were further analyzed using human monocytes isolated from whole blood. Isolated monocytes were cultured for seven to eight days in M-CSF. Cells were then seeded and cultured overnight. […] Three hours later, the cells were treated with 5 mM ATP. Three hours later, IL-1β levels were measured using AlpaLISA. Cholesterol-tagged ASOs were incubated with PTGFRN-overexpressing exosomes to load the ASOs on the surface of the exosomes.

[1] = system: primary human MO macrophages; assay: Cell viability of cultured primary human MO macrophages treated with ASO; assay type: cell-based
mouse NLRP3 reporter = assay: Knock down of HiBit-fused mouse NLRP3 reporter in HEK reporter cell line; assay type: cell-based; details: eleven concentrations
Text: A HEK reporter cell line was transfected with a mouse NLRP3 reporter contruct (FIG. 5A) to assay NLRP3 knockdown at eleven concentrations for the top five performing mouse ASOs (ASO Nos. 16, 19, 70, 98, and 43; FIG. 5B).

NLRP3 pathway = assay: IL-1β secretion in BMDM after ASO-RNAiMAX transfection, LPS and ATP; assay type: cell-based, mouse; details: 2 days post transfection, 200 ng/mL LPS 3 h, 5 mM ATP 3 h
Experimental: Bone marrow-derived macrophages (BMDM) can be used to determine whether knock down of NLRP3 has a downstream effect on activation of the NLRP3 pathway (FIGS. 6A-6B). BMDMs were transfected with increasing concentrations of the top five performing mouse ASOs (ASO Nos. 16, 19, 70, 98, and 43) as part of an ASO-RNAiMAX complex. Two days post transfection, the cells BMDM were treated with 200 ng/mL LPS. Three hour later, the BMDM were treated with 5 mM ATP. Three hours after ATP treatment, IL-1 β secretion was measured.

BMDM = assay: Viability of BMDM treated with LPS, ATP and mNLRP3 ASOs; assay type: cell-based, mouse

With “ASO No. 48: mouse NLRP3 ASO, SEQ ID NO: 209, Seq Start 1262 (antisense TCCAAGGCTACCGGCCTCGT; chemistry not fully specified)” the IC50 (mouse NLRP3 transcript) was 60.6 nM and the “Lowest % value (remaining NLRP3 transcript as a percent of starting levels)” value (mouse NLRP3 transcript) was 65.00%.
“ASO 2672: human NLRP3 ASO, SEQ ID NO: 166 (antisense AGTCCATGGCCCTTTGCACG; chemistry not given here)” was tested, and the IL-1β induction (human NLRP3; 2 nM, 10 nM) was “dose dependent decrease”, the “IL-1β secretion relative to ASO scramble controls” value (human NLRP3; 2 nM) was “reduced IL-1β secretion” and the “IL-1β secretion relative to ASO scramble controls” value (human NLRP3; 10 nM) was “reduced IL-1β secretion”. For the same substance, the Cell viability ([1]; 2 nM ASO) was “remained stable”, the Cell viability ([1]; 10 nM ASO) was “remained stable” and the Cell viability ([1]; 50 nM ASO) was “dropped”.
In the case of “ASO No. 43: mouse NLRP3 ASO, SEQ ID NO: 205, Seq Start 1132 (antisense CGTCAAAGGCCCCTTGTAGC; chemistry not given here)”, the IC50 (mouse NLRP3 transcript) is reported as 15.4 nM, the “Lowest % value (remaining NLRP3 transcript as a percent of starting levels)” value (mouse NLRP3 transcript) is reported as 48.37% and the “Knock down of NLRP3 in the HEK reporter cell line” value (“Knock down of NLRP3” below) (mouse NLRP3 reporter) is reported as “dose-dependent knock down”. For the same substance, the IL-1β secretion (NLRP3 pathway) was “decreased IL-1β secretion at all doses tested” and the Viability (BMDM) was “increased viability”.
For “ASO No. 98: mouse NLRP3 ASO, SEQ ID NO: 204, Seq Start 3761 (antisense CGGGATGGTCAGTTAACAGG; chemistry not given here)”, the IC50 (mouse NLRP3 transcript) was 14.7 nM, the “Lowest % value (remaining NLRP3 transcript as a percent of starting levels)” value (mouse NLRP3 transcript) was 42.17% and the “Knock down of NLRP3” value (mouse NLRP3 reporter; listed as 98) was “dose-dependent knock down; also recorded: most robust knock down”. For the same substance, the IL-1β secretion (NLRP3 pathway) was “decreased IL-1β secretion at all doses tested” and the Viability (BMDM) was “increased viability”.
For “ASO No. 55: mouse NLRP3 ASO, SEQ ID NO: 210, Seq Start 1740 (antisense CTCGCAGTCCACTTCCTTCT; chemistry not fully specified)”, the IC50 (mouse NLRP3 transcript) was 63.1 nM and the “Lowest % value (remaining NLRP3 transcript as a percent of starting levels)” value (mouse NLRP3 transcript) was 59.17%.
For “ASO No. 19: mouse NLRP3 ASO, SEQ ID NO: 202, Seq Start 318 (antisense GATACAGCCTTTCTCGGGCG; chemistry not given here)”, the IC50 (mouse NLRP3 transcript) was 12.7 nM, the “Lowest % value (remaining NLRP3 transcript as a percent of starting levels)” value (mouse NLRP3 transcript) was 36.10% and the “Knock down of NLRP3” value (mouse NLRP3 reporter) was “dose-dependent knock down”. The IL-1β secretion (NLRP3 pathway) was “decreased IL-1β secretion at all doses tested” and the Viability (BMDM) was “increased viability”.
In the case of “ASO 1664: human NLRP3 ASO, SEQ ID NO: 143 (antisense CGTCAAAGGCACCTTGCAGC; chemistry not given here)”, the IL-1β induction (human NLRP3; 2 nM, 10 nM) is reported as “dose dependent decrease”, the “IL-1β secretion relative to ASO scramble controls” value (human NLRP3; 2 nM) is reported as “reduced IL-1β secretion” and the “IL-1β secretion relative to ASO scramble controls” value (human NLRP3; 10 nM) is reported as “reduced IL-1β secretion”. For the same substance, the Cell viability ([1]; 2 nM ASO) was “remained stable”, the Cell viability ([1]; 10 nM ASO) was “remained stable” and the Cell viability ([1]; 50 nM ASO) was “dropped”.
“ASO No. 11: mouse NLRP3 ASO, SEQ ID NO: 206, Seq Start 2961 (antisense GCTTCGTAGATAGAGGTGTG; chemistry not fully specified)” was tested, and the IC50 (mouse NLRP3 transcript) was 28.2 nM and the “Lowest % value (remaining NLRP3 transcript as a percent of starting levels)” value (mouse NLRP3 transcript) was 30.70%.
For “ASO No. 70: mouse NLRP3 ASO, SEQ ID NO: 203, Seq Start 2235 (antisense CGTTTTGACCCTATGACAGT; chemistry not given here)”, the IC50 (mouse NLRP3 transcript) was 13.4 nM, the “Lowest % value (remaining NLRP3 transcript as a percent of starting levels)” value (mouse NLRP3 transcript) was 30.43% and the “Knock down of NLRP3” value (mouse NLRP3 reporter) was “dose-dependent knock down”. The IL-1β secretion (NLRP3 pathway) was “decreased IL-1β secretion at all doses tested” and the Viability (BMDM) was “increased viability”.
“ASO 3094: human NLRP3 ASO, SEQ ID NO: 174 (antisense GTCGAAGCAGCACTCATGCG; chemistry not given here)” was tested, and the IL-1β induction (human NLRP3; 2 nM, 10 nM) was “dose dependent decrease”, the “IL-1β secretion relative to ASO scramble controls” value (human NLRP3; 2 nM) was “reduced IL-1β secretion” and the “IL-1β secretion relative to ASO scramble controls” value (human NLRP3; 10 nM) was “reduced IL-1β secretion”. The Cell viability ([1]; 2 nM ASO) was “remained stable”, the Cell viability ([1]; 10 nM ASO) was “remained stable” and the Cell viability ([1]; 50 nM ASO) was “dropped”.
With “ASO No. 16: mouse NLRP3 ASO, SEQ ID NO: 201, Seq Start 229 (antisense GCTTGCAACGGACACTCGTC; chemistry not given here)” the IC50 (mouse NLRP3 transcript) was 6.56 nM, the “Lowest % value (remaining NLRP3 transcript as a percent of starting levels)” value (mouse NLRP3 transcript) was 36.10% and the “Knock down of NLRP3” value (mouse NLRP3 reporter) was “dose-dependent knock down”. For the same substance, the IL-1β secretion (NLRP3 pathway) was “decreased IL-1β secretion at all doses tested” and the Viability (BMDM) was “increased viability”.
With “ASO No. 21: mouse NLRP3 ASO, SEQ ID NO: 207, Seq Start 392 (antisense TCGCCATTGAAGTCAATCAT; chemistry not fully specified)” the IC50 (mouse NLRP3 transcript) was 30.1 nM and the “Lowest % value (remaining NLRP3 transcript as a percent of starting levels)” value (mouse NLRP3 transcript) was 33.07%.
In the case of “ASO No. 41: mouse NLRP3 ASO, SEQ ID NO: 208, Seq Start 984 (antisense CTCTCGGCAGTGGATAAAGA; chemistry not fully specified)”, the IC50 (mouse NLRP3 transcript) is reported as 57.3 nM and the “Lowest % value (remaining NLRP3 transcript as a percent of starting levels)” value (mouse NLRP3 transcript) is reported as 52.30%.
